The values below come from publication PMC5354900, “Peptide-guided targeting of GPR55 for anti-cancer therapy” (Oncotarget, 2016).

Molecules are shown by their SMILES. Positions of bridges follow the written chain, without caps; N, C: chain ends. Residues, ends and D or L forms follow the SMILES beside them. *: point of attachment. FITC = O=C1OC2(c3ccc(O)cc3Oc3cc(O)ccc32)c2ccc(NC(=S)*)cc21; Ahx = NCCCCCC(=O)O

Assay [1] deals with EHEB cells. In words: annexin-V staining of EHEB cells (FACS). Format: cell-based, human. The source says: In parallel, for analysis of apoptosis markers, 200,000 cells/sample were harvested, washed in PBS, stained with fluorescent annexin V using human annexin V-FITC kits (Bender MedSystems GmbH, Vienna, Austria), according to the manufacturer instructions, and analyzed by FACS.

The test system of assay [2] is EHEB cells. Put plainly: growth of EHEB cells (cell counting). Conditions: ML-191 0.5 μM, 96 h. The class given is cell-based, human. The protocol:
(§1) HEK293 cells were bought in 2012, from the American Type Culture Collection (ATCC catalogue number: CRL-11268), and were grown in monolayers in DMEM supplemented with 10% FBS, 2 mM L-glutamine, 100 U/ml penicillin, and 100 μg/ml streptomycin. HeLa cells were received from Dr. D. Corda, Institute of Protein Biochemistry, CNR, Naples, which were bought in 2006 from the European Collection of Cell Culture (ECACC catalog number: 93021013). Wild-type HeLa cells were maintained in MEM with 10% FBS, 2 mM L-glutamine, 100 U/ml penicillin, 100 μg/ml streptomycin, and nonessential amino acids (i.e., 100 μM glycine, L-alanine, L-asparagine, L-aspartic acid, L-glutamic acid, L-proline, L-serine). The HeLa clones were selected in the presence of 0.3 μg/ml puromycin. CHO cells were received from Dr. D. Corda, and were grown in DMEM supplemented with 10% FBS, 2 mM L-glutamine, 100 U/ml penicillin, 100 μg/ml streptomycin, and nonessential amino acids. EHEB cells are an Epstein-Barr-virus-immortalized cell line that was established from a chronic lymphocytic leukemia patient, and these were purchased from DSMZ (Deutsche Sammlung von Mikroorganismen und Zellkulturen GmbH, Braunschweig, Germany). DeFew cells are a non-Hodgkin lymphoma cell line, and these were obtained from Prof. G. Scala, ‘Magna Graecia’ University of Catanzaro [46–48]. Both of these human B-lymphoblastoid cell lines were maintained in RPMI 1640 with 10% heat-inactivated (30 min at 55°C) FBS, 2 mM L-glutamine, 100 U/ml penicillin, and 100 μg/ml streptomycin, and were routinely tested for BCR expression and anti-IgG stimulation, according to previous studies. All of the cells were grown in a humidified atmosphere of 5% CO2 and at 37°C return.
(§2) The EHEB cell growth rate was evaluated by cell counting. EHEB and DeFew cells were plated into 24-well plates in 400 μl growth medium at a density of 25,000 cells/ml. The cells were grown in the absence and presence of different agents, which were added immediately after cell plating and replenished every 24 h. Every 24 h, the cells were put through independent and blinded counts in triplicate, using a Neubauer cell-counting chamber. After 48 h, the cells were diluted 1:2 with fresh medium and 400 μl were transferred in a new 24-well for the following peptide additions. At 96 h, the cells were counted with 0.2% trypan blue, to determine cell viability.

The next assay relates to DeFew cells. Put plainly: growth of DeFew cells (cell counting). Format: cell-based, human. Conditions: ML-191 0.5 μM, 96 h. The procedure: as §1, §2
A further assay has as its system GPR55 (HeLa cells). In words: FITC-peptide binding to HeLa cells silenced for GPR55 (siRNA, shRNA) or re-expressing HA-GPR55 (FACS). Details: species or system human. Conditions: 40 μg/ml, 1 h at 37°C. The protocol:
For transient interference of GPR55, HeLa cells were plated at 150,000 cells/6-well plate in growth medium without antibiotics, and 24 h later they were transfected with 75 pmol/well non-targeting #2 siRNA (siNT) or human GPR55-targeting siRNAs (D-00581-05) (siGPR55) (siGENOME, Dharmacon, Chicago, IL, USA), using Lipofectamine 2000, according to the manufacturer instructions. Twenty-four hours later, the cells were detached by trypsinization, plated again at 150,000 cells/6-well plate, and 10 h later they were re-transfected with siNT or with siGPR55. Forty-eight hours later, the cells were analyzed. For stable interference of GPR55, HeLa cells were transfected with 1.7 μg/well OmicsLink shRNA expression clone CSHCTR001-CU6 (shCtrl) or clone HSH022476-3-CU6 (shGPR55) from GeneCopoeia (Rockville, MD, USA), using Lipofectamine 2000, according to the manufacturer instructions. Forty-eight hours after transfection, HeLa clones stably expressing shRNAs were selected in growth medium containing 0.3 μg/ml puromycin.
Wild-type HeLa cells plated at a density of 150,000 cells/6-well plate, or cells stable interfered with shCtrl and shGPR55 plated at a density of 120,000 cells/6-well plate, or HeLa cells transiently interfered (48 h after the first interference) were washed twice with HBSS^++, and incubated with the indicated concentrations of the FITC-labeled peptides for the indicated times at 37°C in 1 ml HBSS^++ plus 0.1% fatty-acid-free BSA and 25 mM HEPES, pH 7.5. Then, the cells were washed twice with PBS plus 0.01% Tween-20, and once with PBS, and incubated for 5 min at 37°C with PBS with 2 mM EDTA, detached by scraping, and resuspended in PBS plus 3% BSA. Cell-associated FITC fluorescence was evaluated using FACS, after addition of 4 μg/ml propidium iodide, to exclude dead cells from the FACS gating. Fluorescence intensity was evaluated as % FITC-positive cells and mean fluorescence, recorded before (for peptide binding) and after (for peptide internalization) addition of 0.2% trypan blue to quench the fluorescence of the extracellular bound peptides.

Another assay deals with HA-GPR55. Put plainly: confocal co-localization of FITC-P1 with HA-GPR55 in HeLa cells. Format: cell-based, human. The conditions noted are these: 40 μg/ml (26.8 μM) FITC-P1, 1 h, live HeLa cells overexpressing HA-GPR55. The procedure: HEK293 or CHO cells were rinsed with PBS, fixed for 10 min at room temperature in 4% (v/v) paraformaldehyde, and permeabilized in 0.02% saponin, 0.5% BSA, and 50 mM ammonium chloride in PBS (blocking solution). Then, the cells were stained with an anti-HA antibody (1:1,000) for 1 h at room temperature for GPR55 visualization, followed by 30 min at room temperature with Alexa488- or Alexa568-conjugated anti-mouse secondary antibodies (1:800), with 33 nM Alexa546-labeled phalloidin (Life Technologies) for filamentous actin visualization, or 2 μg/ml Hoechst (Sigma) for nuclei staining, with all reagents diluted in blocking solution. Then, the cells were washed three times with PBS plus 0.02% Tween-20, and the coverslips were mounted and examined by confocal microscope (LSM 510; Zeiss, Germany), with images acquired using the ZEN 2.1 (black) program (Carl Zeiss Microscopy GmbH 1997-2015). For localization studies of FITC-P1 and GPR55 in live HeLa cells, the cells were incubated with an anti-HA antibody (1:1,000) in PBS plus 3% BSA for 1 h on ice, then washed with PBS, and incubated with an Alexa568-conjugated anti-mouse secondary antibody (1:800) in PBS plus 3% BSA for 45 min on ice. The cells were then incubated with FITC-P1 as reported, fixed for 10 min in 4% (v/v) paraformaldehyde, and examined by confocal microscopy, as above.

Assay [3] deals with T1, immunoprecipitated HA-GPR55 (Homo sapiens, UniProt Q9Y2T6).
T1 construct: expressed in transfected cells; host or cells: HeLa cells, transient transfection; anti-HA immunoprecipitate on beads
Put plainly: FITC-peptide binding to immunoprecipitated HA-GPR55. Conditions: FITC-P1 40 μg/ml (26.8 μM), 2 h at 37°C; three independent experiments in triplicate.

T1 sequence (Q9Y2T6 whole entry): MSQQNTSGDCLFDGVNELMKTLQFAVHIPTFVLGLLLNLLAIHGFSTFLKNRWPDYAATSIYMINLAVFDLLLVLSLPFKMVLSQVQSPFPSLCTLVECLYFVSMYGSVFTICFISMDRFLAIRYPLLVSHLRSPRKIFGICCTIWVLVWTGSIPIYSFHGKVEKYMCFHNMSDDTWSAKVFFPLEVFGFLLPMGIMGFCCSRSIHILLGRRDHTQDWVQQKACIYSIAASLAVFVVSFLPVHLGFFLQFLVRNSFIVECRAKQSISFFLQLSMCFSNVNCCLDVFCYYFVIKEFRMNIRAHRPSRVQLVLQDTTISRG

`COc1cccc2c1C(=O)c1c(O)c3c(c(O)c1C2=O)C[C@@](O)(C(=O)CO)C[C@@H]3O[C@H]1C[C@H](N)[C@H](O)[C@H](C)O1` [doxorubicin]: in the assay with EHEB cells [1] (doxorubicin 10 μM), the “annexin V cell decoration, positive control” value is “different from cells treated with the pro-apoptotic agent doxorubicin (10 μM)”.

Consider `Cc1ccc(C2(C(=O)N3CCC(n4nc(-c5ccccc5)oc4=O)CC3)CC2)cc1` [ML-191], for which the Cell counts/ml in the assay with EHEB cells [2] (replenished every 24 h, DMSO 801 ±18, means ±SEM, n = 4 in duplicate, p <0.01) was 578 ±49 ×1,000; in the assay with DeFew cells (replenished every 24 h, DMSO 1053 ±41, means ±SEM, n = 4 in duplicate, p <0.01), 650 ±51 ×1,000. Moreover, the Growth inhibition entry in the assay with EHEB cells [2] (relative to DMSO-treated cells) is listed as “(28%)”; in the assay with DeFew cells (relative to DMSO-treated cells), “(38%)”. Further, the “annexin V cell decoration” value in the assay on EHEB cells [1] (biotinylated P1 1 μg/ml alone or streptavidin-bound, ML-191 0.5 μM) is on record as “did not increase annexin V cell decoration, similar to ML-191”.

As for `CC(C)C[C@@H]1NC(=O)[C@H]([C@@H](C)O)NC(=O)[C@@H]2CCCN2C(=O)[C@H](CO)NC(=O)[C@H](CC(N)=O)NC(=O)[C@H](CCCCN)NC(=O)[C@H](CCCCN)NC(=O)[C@@H](NC(=O)CCCCCNC(=S)Nc2ccc3c(c2)C(=O)OC32c3ccc(O)cc3Oc3cc(O)ccc32)CSSC[C@@H](C(=O)O)NC1=O` [FITC-P1] ({FITC-Ahx}-CKKNSPTLC-OH; disulfide 1-9; N-terminus and C-terminus assumed), the “decrease in binding, siGPR55 relative to siNT” value in the assay on GPR55 (HeLa cells) (50% reduction in GPR55 expression, four independent experiments) came out at 26%. The “less binding to shGPR55 HeLa clones relative to shCtrl” value in the assay on GPR55 (HeLa cells) (90% decrease in GPR55 mRNA, three independent experiments) turned out to be 34%. Further, the “increase in binding on GPR55 re-expression in shGPR55 clones versus empty vector” value with GPR55 (HeLa cells) (three independent experiments) worked out at 25%. For the same molecule, in the assay on HA-GPR55, the “co-localization with GPR55” value is “distributed at the membrane level, with evident spots of co-localization”. The “binding to glycosylated versus deglycosylated GPR55” value in assay [3] is “bound equally to both glycosylated and deglycosylated GPR55-immunoprecipitates”.
